The NIST ThermoML archive (doi:10.1021/je060271a)
Several values for one entry are separate records, joined by “and”; a condition that tells them apart may be missing. Equal entries are not always repeated.

Details: 283.15 K, Liquid, Vibrating tube method

CCCCCCCC(=O)OCC(COC(=O)CCCCCCC)(COC(=O)CCCCCCC)COC(=O)CCCCCCC [pentaerythritol tetraoctanoate]
Details | mass density
4499.9 kPa | 972.9 kg/m3
4501.9 kPa | 972.9 kg/m3
4502.4 kPa | 972.9 kg/m3
4503 kPa | 972.9 kg/m3 and 972.8 kg/m3
4503.5 kPa | 972.8 kg/m3 and 972.9 kg/m3
4505.4 kPa | 972.9 kg/m3
4508 kPa | 973 kg/m3
4510.6 kPa | 972.9 kg/m3
4512.1 kPa | 972.8 kg/m3
4513.2 kPa | 972.9 kg/m3
4519.1 kPa | 972.9 kg/m3
4544.7 kPa | 972.8 kg/m3
4566.3 kPa | 972.8 kg/m3
4589 kPa | 972.9 kg/m3
4613.1 kPa | 972.9 kg/m3
4644 kPa | 972.9 kg/m3
4671.2 kPa | 973 kg/m3
4696.3 kPa | 973 kg/m3
4730.1 kPa | 973 kg/m3
4758.6 kPa | 973 kg/m3
4787.7 kPa | 973.1 kg/m3
4817.5 kPa | 973.1 kg/m3
4847.6 kPa | 972.9 kg/m3
4883.9 kPa | 973 kg/m3
4914.4 kPa | 973.1 kg/m3
4945.7 kPa | 973.1 kg/m3
4982.7 kPa | 973.1 kg/m3
5014 kPa | 973.2 kg/m3
5046.2 kPa | 973.1 kg/m3
5085.5 kPa | 973.2 kg/m3
5118.2 kPa | 973.2 kg/m3
5152.1 kPa | 973.1 kg/m3
5187.4 kPa | 973.3 kg/m3
5230.5 kPa | 973.3 kg/m3
5268 kPa | 973.4 kg/m3
5301.1 kPa | 973.3 kg/m3
5328.4 kPa | 973.3 kg/m3
5360.9 kPa | 973.4 kg/m3
5388.3 kPa | 973.3 kg/m3
5416.4 kPa | 973.3 kg/m3
5445 kPa | 973.4 kg/m3
5479.2 kPa | 973.5 kg/m3
5507.9 kPa | 973.4 kg/m3
5537.9 kPa | 973.4 kg/m3
5567.3 kPa | 973.5 kg/m3
5603.1 kPa | 973.6 kg/m3
5664.1 kPa | 973.4 kg/m3
5695.6 kPa | 973.6 kg/m3
5733.6 kPa | 973.7 kg/m3
5766.5 kPa | 973.5 kg/m3
5806.4 kPa | 973.6 kg/m3
5839.8 kPa | 973.6 kg/m3
5864 kPa | 973.6 kg/m3
5890.1 kPa | 973.8 kg/m3
5912.2 kPa | 973.6 kg/m3
5934.9 kPa | 973.7 kg/m3
5958.4 kPa | 973.7 kg/m3
5985.4 kPa | 973.8 kg/m3
6009 kPa | 973.7 kg/m3
6033.2 kPa | 973.8 kg/m3
6058.3 kPa | 973.9 kg/m3
6083.5 kPa | 973.7 kg/m3
6114.7 kPa | 973.7 kg/m3
6133.8 kPa | 973.8 kg/m3
6146.1 kPa | 973.7 kg/m3
6160.5 kPa | 973.8 kg/m3
6172.9 kPa | 973.9 kg/m3
6185.2 kPa | 973.8 kg/m3
6197.6 kPa | 973.8 kg/m3
6211.8 kPa | 973.8 kg/m3
6223.9 kPa | 973.8 kg/m3
6236.2 kPa | 973.9 kg/m3
6249.3 kPa | 973.9 kg/m3
6264.2 kPa | 973.9 kg/m3
6277.1 kPa | 974.1 kg/m3
6289.8 kPa | 973.9 kg/m3
6302.4 kPa | 973.9 kg/m3
6317.2 kPa | 973.8 kg/m3
6330 kPa | 973.9 kg/m3
6342.8 kPa | 974 kg/m3
6358 kPa | 974 kg/m3
6370.8 kPa | 973.9 kg/m3
6383.6 kPa | 973.9 kg/m3
6399 kPa | 973.9 kg/m3
6412.5 kPa | 974 kg/m3
6425.5 kPa | 973.9 kg/m3
6438.7 kPa | 974 kg/m3
6452 kPa | 974 kg/m3
6467.9 kPa | 974 kg/m3
6481 kPa | 974 kg/m3
6494.5 kPa | 974.2 kg/m3
6510.4 kPa | 974 kg/m3
6523.9 kPa | 974 kg/m3
6537.9 kPa | 974.1 kg/m3
6551.3 kPa | 973.9 kg/m3
6567.7 kPa | 974.1 kg/m3
6581.8 kPa | 974 kg/m3
6596.4 kPa | 974.1 kg/m3
6610.8 kPa | 974.1 kg/m3
6627.5 kPa | 974.1 kg/m3
6641.5 kPa | 974.1 kg/m3
6655.5 kPa | 974 kg/m3
6669.7 kPa | 974.1 kg/m3
6686.6 kPa | 974.2 kg/m3
6700.8 kPa | 974.1 kg/m3
6715.1 kPa | 974.1 kg/m3
6732.2 kPa | 974.1 kg/m3
6746.8 kPa | 974.1 kg/m3
6761.4 kPa | 974.2 kg/m3
6776.5 kPa | 974.1 kg/m3
6793.7 kPa | 974.1 kg/m3
6808.6 kPa | 974.2 kg/m3
6823.5 kPa | 974.2 kg/m3
6838.3 kPa | 974 kg/m3
6856.4 kPa | 974.1 kg/m3
6871.7 kPa | 974.2 kg/m3
6886.9 kPa | 974.2 kg/m3
6902.1 kPa | 974.3 kg/m3
6920.2 kPa | 974.3 kg/m3
6935.4 kPa | 974.3 kg/m3
6950.9 kPa | 974.3 kg/m3
6969.4 kPa | 974.3 kg/m3
6985 kPa | 974.3 kg/m3
7001 kPa | 974.3 kg/m3
7016.8 kPa | 974.3 kg/m3
7035.6 kPa | 974.3 kg/m3
7051.3 kPa | 974.3 kg/m3
7067 kPa | 974.3 kg/m3
7083.6 kPa | 974.3 kg/m3
7102.8 kPa | 974.3 kg/m3
7119 kPa | 974.3 kg/m3
7135.2 kPa | 974.4 kg/m3
7154.7 kPa | 974.4 kg/m3
7171.1 kPa | 974.3 kg/m3
7187.5 kPa | 974.3 kg/m3
7204.5 kPa | 974.4 kg/m3
7221.2 kPa | 974.5 kg/m3
7241.1 kPa | 974.5 kg/m3
7257.8 kPa | 974.4 kg/m3
7274.9 kPa | 974.6 kg/m3
7295 kPa | 974.5 kg/m3
7311.7 kPa | 974.4 kg/m3
7329.3 kPa | 974.4 kg/m3
7346.6 kPa | 974.5 kg/m3
7367.1 kPa | 974.6 kg/m3
7384.6 kPa | 974.5 kg/m3
7402.3 kPa | 974.6 kg/m3
7423.4 kPa | 974.5 kg/m3
